Reference: patent US20120108641A1, “ANTITUMOR COMBINATION INCLUDING AVE8062 AND SORAFENIB” (SANOFI, priority 2009, published 2012)
Values joined by “and” are separate entries in the source; they are usually repeats but may differ in a detail not shown here. Identical values can stand only once. Like-named read-outs stand apart in the source and are kept apart here.

Assays:
[1] = Experimental: (§1) In the case of an early tumour treatment, the implanted animals are distributed randomly in various groups which are, or are not (controls), intended to receive the treatment(s). […] The animals are observed and weighed every day. A dose which induces a weight loss of 20% or more at the lowest point (average of the group) or a mortality of 10% or more is considered to be toxic. The tumour activity is evaluated at the highest non-toxic dose, or at the highest dose tested, within the context of a non-cytotoxic agent.
(§2) Within the context of the following studies, the AVE8062, in hydrochloride form, is formulated in water with 0.9% NaCl.
(§3) The AVE8062 was administered intravenously on days 10 and 14 post tumour implantation. The sorafenib was administered orally from day 10 to day 14. The two agents were administered in combination, according to the same schedules as those used for the agents alone, but the administration of sorafenib having been staggered one hour after the administration of the AVE8062.

[2] = Study 3: toxicity, highest non-toxic dose; type: in vivo, female SCID mice; details: Study 3, AVE8062 alone i.v. days 9, 14
Experimental: The animals are observed and weighed every day.
The AVE8062 was administered intravenously on days 9 and 14 post implantation of the NCI-H460 pulmonary tumour in female SCID mice.

[3] = tested on: NCI-H460 human non-small cell lung tumour; test: Study 1: sorafenib administered simultaneously with AVE8062, antitumour activity; type: in vivo, female SCID mice; details: AVE8062 22.3 mg/kg per injection i.v. days 9, 13
Description: (§4) A product is considered to be active if the log10 cell kill is greater than or equal to 0.7.
(§5) The activity in this case is acknowledged for a net log cell kill that is positive (>0). A cytostatic activity corresponds to a net log cell kill of 0, that is to say that the treatment time is equal to the duration of the antitumour effect.
as §1
(§6) The tumours are measured 2 or 3 times a week until the tumour reaches approximately 2 g or until the animal dies, if this occurs before the tumour reaches 2 g. The animals are autopsied when they are sacrificed.
(§7) The antitumor activity is determined in accordance with various recorded parameters, such as the dose (mg/kg), the method of administration, the administration time, the toxicity and the log10 cell kill, which depends on the tumour growth delay and also on the tumour doubling time.
as §2
Study 1: Sorafenib Administered Simultaneously with AVE8062 (Table I)
The AVE8062 was administered intravenously on days 9 and 13 post tumour implantation. The sorafenib was administered orally from day 9 to day 24. When the two agents were administered in combination, the same schedules were used as for the agents alone, the combination of the two agents having been carried out simultaneously on days 9 and 13.

[4] = tested on: NCI-H460 human non-small cell lung tumour; test: Study 3: sorafenib administered 24 h after AVE8062, antitumour activity; type: in vivo, female SCID mice
Description: as §4, §5, §1, §6, §7, §2
Study 3: Sorafenib Administered 24 h after AVE8062 in the Combination (Table III)
The AVE8062 was administered intravenously on days 9 and 14 post implantation of the NCI-H460 pulmonary tumour in female SCID mice. The sorafenib was administered orally from day 9 to day 20. When the 2 agents were administered in combination, the same schedules were used as for the agents alone, but the administrations of sorafenib were started 24 hours after that of AVE8062.

[5] = tested on: NCI-H460 human non-small cell lung tumour; test: Study 2: sorafenib administered 1 h after AVE8062, antitumour activity; type: in vivo, female SCID mice
Description: as §4, §1, §6, §7, §2
Study 2: Sorafenib Administered 1 h after AVE8062 in the Combination (Table II)
as §3

[6] = AVE8062 22.3 mg/kg/admin i.v. days 10, 14
[7] = AVE8062 22.3 mg/kg per injection i.v. days 9, 14
[8] = sorafenib 100.0 mg/kg/admin p.o. days 10-14
[9] = sorafenib 100.0 mg/kg per injection p.o. days 9-20

In the case of COc1ccc(/C=C\c2cc(OC)c(OC)c(OC)c2)cc1NC(=O)[C@@H](N)CO [AVE8062, (Z)—N-[2-methoxy-5-[2-(3,4,5-trimethoxyphenyl)vinyl]phenyl]-L-serinamide], the “Mortality (day of death)” value [1, 6] is reported as 0/5, the “% BWC (day of lowest point)” value ([1]; AVE8062 22.3 mg/kg/admin i.v. days 10, 14, lowest point day 21) is reported as −3.2 (21) % and the “highest non-toxic dose (HNTD)” value ([1]; Study 2, AVE8062 alone i.v. days 10, 14) is reported as 22.3 mg/kg per injection. The “highest non-toxic dose (HNTD)” value [2] was 36 mg/kg per injection, the CR [3] was 0/6 and the Observations [3] was “Inactive”. For the same compound, the PR [3] was 0/6, the log cell kill [3] was 0.6 and the “net log cell kill” value [3] was −0.1. The CR [4, 7] was 0/6, the Observations [4, 7] was “Active” and the PR [4, 7] was 0/6. For the same compound, the “gross log cell kill” value [4, 7] was 1.7, the “net log cell kill” value [4, 7] was 0.3 and the Observations [5, 6] was “HNTD - active”. For the same compound, the Regressions complete [5, 6] was 0/5, the “T − C” value [5, 6] was 5.8 days and the log cell kill [5, 6] was 1.1. The Regressions partial ([5]; AVE8062 22.3 mg/kg/admin i.v. days 10, 14, 22.3 mg/kg) was “without inducing tumour regression and 0/5”.

With CNC(=O)c1cc(Oc2ccc(NC(=O)Nc3ccc(Cl)c(C(F)(F)F)c3)cc2)ccn1 [Sorafenib, 4-[4-[[4-chloro-3-(trifluoromethyl)phenyl]carbamoylamino]phenoxy]-N-methylpyridine-2-carboxamide] the “Mortality (day of death)” value [1, 8] was 0/6, the CR [4, 9] was 0/6 and the Observations [4, 9] was “HDT - no cytostasis”. The PR [4, 9] was 0/6, the “gross log cell kill” value [4, 9] was 2.4 and the “net log cell kill” value [4, 9] was −0.4. The Observations [5, 8] was “HDT - Active”, the Regressions complete [5, 8] was 0/6 and the Regressions partial [5, 8] was 0/6. The “T − C” value [5, 8] was 6.1 days and the log cell kill [5, 8] was 1.1.
